pIC50: −log10 of the molar value.
What was measured:
3D7 parasites = details: ref [1] Van Voorhis et al. 2016; read-out: IC50 for killing of 3D7 parasites; cited from earlier work
[1] = system: erythrocytes infected with 3D7 trophozoites; type: cell-based, Plasmodium falciparum; details: sheet Ratio; for Ratio of metabolite abundance, Exp1_1hr: Exp1, 1hr; for Ratio of metabolite abundance, Exp1_3hr: Exp1, 3hr; for Ratio of metabolite abundance, Exp1_6hr: Exp1, 6hr; for Ratio of metabolite abundance, Exp2_1hr: Exp2, 1hr; for Ratio of metabolite abundance, Exp2_3hr: Exp2, 3hr; for Ratio of metabolite abundance, Exp2_6hr: Exp2, 6hr; for Ratio of metabolite abundance, Exp3_1hr: Exp3, 1hr; for Ratio of metabolite abundance, Exp3_3hr: Exp3, 3hr; for Ratio of metabolite abundance, Exp3_6hr: Exp3, 6hr

| Structure (SMILES) | pIC50 (3D7 parasites) | Ratio of metabolite abundance, Exp1_1hr [1] | Ratio of metabolite abundance, Exp1_3hr [1] | Ratio of metabolite abundance, Exp1_6hr [1] | Ratio of metabolite abundance, Exp2_1hr [1] | Ratio of metabolite abundance, Exp2_3hr [1] | Ratio of metabolite abundance, Exp2_6hr [1] | Ratio of metabolite abundance, Exp3_1hr [1] | Ratio of metabolite abundance, Exp3_3hr [1] | Ratio of metabolite abundance, Exp3_6hr [1] |
| --- | --- | --- | --- | --- | --- | --- | --- | --- | --- | --- |
| CC(C)OCc1cc(CN2CCN(c3cccc(Cl)c3)CC2)c(O)c2ncccc12 [MMV000788] | 6.15 | – | – | – | – | – | – | – | – | – |
| Brc1ccc(Nc2nc3ccccc3nc2Nc2ccc(Br)cc2)cc1 [MMV007224] | 5.97 | – | – | – | – | – | – | – | – | – |
| Cc1ccc(Nc2nc(-c3ccccn3)cs2)cc1 [MMV007907] | 6.46 | – | – | – | – | – | – | – | – | – |
| Cc1cccc(-n2ncc3c(O)nc(-n4nc(C)cc4NC(=O)c4cc5ccccc5o4)nc32)c1 [MMV403679] | 6.03 | – | – | – | – | – | – | – | – | – |
| FC(F)(F)c1cccc(Nc2nc3ccccc3nc2Nc2cccc(C(F)(F)F)c2)c1 [MMV665794] | 6.51 | – | – | – | – | – | – | – | – | – |
| O=c1ccn([C@@H]2O[C@H](COP(=O)(O)O)[C@@H](O)[C@H]2O)c(=O)[nH]1 [UMP] | – | 0.9634 | 0.9303 | 0.812 | 0.4945 | 0.6514 | 1.0366 | 0.9925 | 0.9562 | 0.9948 |
| CC(C)[C@H](N)C(=O)N[C@@H](CC(=O)O)C(=O)O [VD] | – | 1.809 | 1.252 | 2.887 | 2.091 | 1.368 | 1.996 | 11.5926 | 5.435 | 7.8446 |
| Nc1ncnc2c1ncn2[C@H]1C[C@H](O)[C@@H](COP(=O)(O)OP(=O)(O)O)O1 [dADP] | – | 0.4339 | 0.1672 | 0.2747 | 1.0009 | 0.9609 | 1.167 | 1.173 | 0.5208 | 1.268 |
| Nc1ncnc2c1ncn2[C@H]1C[C@H](O)[C@@H](COP(=O)(O)OP(=O)(O)OP(=O)(O)O)O1 [dATP] | – | 0.9995 | 0.8537 | 0.9613 | 1.009 | 1.102 | 1.077 | 1.104 | 0.9965 | 1.005 |
| Nc1ccn([C@H]2C[C@H](O)[C@@H](COP(=O)(O)OP(=O)(O)O)O2)c(=O)n1 [dCDP] | – | 1.169 | 1.109 | 1.155 | 1.1851 | 1.387 | 1.852 | 1.354 | 1.295 | 1.494 |
| Nc1nc2c(ncn2[C@H]2C[C@H](O)[C@@H](COP(=O)(O)O)O2)c(=O)[nH]1 [dGMP] | – | 1.008 | 1.65 | 0.6713 | 1.04 | 0.9344 | 0.8266 | 1.138 | 0.9165 | 0.8614 |
| Cc1cn([C@H]2C[C@H](O)[C@@H](COP(=O)(O)O)O2)c(=O)[nH]c1=O [dTMP] | – | 1.094 | 1.051 | 1.314 | 1.082 | 1.005 | 1.669 | 0.8062 | 1.245 | 1.203 |
| Cc1cn([C@H]2C[C@H](O)[C@@H](COP(=O)(O)OP(=O)(O)OP(=O)(O)O)O2)c(=O)[nH]c1=O [dTTP] | – | 1.097 | 0.6301 | 0.6957 | 1.256 | 1.272 | 1.427 | 1.1105 | 1.053 | 1.149 |
| O=c1ccn([C@H]2C[C@H](O)[C@@H](COP(=O)(O)O)O2)c(=O)[nH]1 [dUMP] | – | 3.473 | 5.178 | 2.302 | 3.524 | 1.859 | 4.376 | 1.122 | 1.775 | 0.8871 |
| O=P(O)(O)OC[C@H](O)CO [sn-Glycerol 3-phosphate] | – | 2.74 | 3.024 | 2.283 | 2.716 | 2.322 | 2.253 | 2.3639 | 3.645 | 2.752 |
| O=P(O)(OC[C@H](O)CO)OC1[C@H](O)[C@H](O)C(O)[C@H](O)[C@H]1O (some centres unmarked) [sn-glycero-3-Phospho-1-inositol] | – | 0.9506 | 1.24 | 0.9287 | 1.0526 | 1.0759 | 1.139 | 0.7659 | 1.067 | 1.2236 |

Source: paper PMC5298231, “The Malaria Parasite's Lactate Transporter PfFNT Is the Target of Antiplasmodial Compounds Identified in Whole Cell Phenotypic Screens” (PLoS Pathogens, 2017)
